{"source": "paper PMC9882606", "about": "“Rationally designed inhibitors of the Musashi protein-RNA interaction by hotspot mimicry” (Research Square, 2023)", "key": {"K562 cells": {"tested_on": "K562 cells", "test": "Cell growth/survival, K562", "type": "cell-based, human", "description": "It is difficult to determine precisely why Ro and R12–8–44–3 have such dramatically different behavior in this assay: one possibility is that Ro, a repurposed compound originally reported for activity unrelated to MSI2, may exert its cytotoxic effect in these cell lines through molecular targets unrelated to MSI2."}, "MSI2 [1]": {"tested_on": "MSI2", "test": "Immunoblot of cellular MSI2 protein levels in PC9 cells", "type": "cell-based, human", "conditions": "PC9, 20 μM compound for 1, 3, 6, 24, or 48 hours", "description": "To explore the effect of these MSI2 inhibitors in a cancer-relevant cellular context, we selected two MSI2-dependent cancer cell lines: non-small cell lung cancer cell line PC9 and leukemia cell line K562 [73, 98–101]. Upon treatment of PC9 cells with Ro, R12–8–44–3, or negative control R12-neg, we found at multiple time points that cellular MSI2 protein levels were unchanged (Figure 6a). To confirm target engagement, we therefore adapted the cellular thermal shift assay (CETSA). To determine experimental conditions, we first harvested cells and incubated at increasing temperatures; we then removed aggregated protein by centrifugation and used Western blotting to probe the amount of MSI2 remaining in the soluble fraction (Figure 6b, Figure S9). Having established 49 °C as the midpoint of the transition under these (non-equilibrium) conditions, we then treated cells with our candidate MSI2 inhibitor for 3 h, and heated to 49 °C.\nFigure 6: Direct cellular engagement of MSI2 interaction by R12–44–3. (A) Immunoblot from PC9 cells treated with Ro (positive control), R12-neg (negative control), or R12–8–44–3. Cells were treated with 20 μM compound for 1, 3, 6, 24, or 48 hours. MSI2 protein abundance was then quantified and normalized to untreated sample. One representative image is shown; quantification is presented as the average ± S.E.M. from 3 independent replicates. (B) Thermal-induced aggregation of cellular MSI2 in the PC9 cell line. Cells were briefly incubated at temperatures between 40 °C to 67 °C, then centrifuged and the amount of MSI2 remaining in the soluble fraction was quantified by Western blotting. […] One representative image is shown; quantification is presented as the average ± S.E.M. from 3 independent replicates, normalized first to beta-actin and then to DMSO control. […] One representative image is shown; quantification is presented as the average ± S.E.M. from 3 independent replicates, normalized first to beta-actin and then to DMSO control. […]"}, "[2]": {"tested_on": "EGFR, SMAD3, and MSI2 protein levels", "test": "Immunoblot of MSI2 downstream targets in PC9 cells", "type": "cell-based, human", "conditions": "PC9, 5 μM or 20 μM, 48 hours", "method": "Figure 7: Cellular characterization of MSI2 inhibition by R12–8–44–3. (A) Quantification of mRNA immunoprecipitation (RIP) results. Cells were treated with 10 μM of the indicated compounds for 8 hours. After immunoprecipitation with anti-MSI2, mRNA targets were quantified. The amount of each target mRNA in the pulldown was calculated relative to the input, and results from all targets were normalized to PTP4A1. Treating cells with R12–8–44–3 disrupted the interaction with all four cognate mRNAs (PTP4A, SMAD3, EGFR, and MSI2). Data are presented as the average ± S.E.M. from at least 3 independent replicates. […] Cells were treated with indicated compounds at two concentrations (5 μM and 20 μM) for 48 hours, then protein levels of relevant MSI2 targets were determined (EGFR, SMAD3, and MSI2). One representative image is shown; quantification is presented as the average ± S.E.M. from at least 3 independent replicates, normalized first to beta-actin and then to DMSO-treated cells. (C) Cell viability dose-response quantified by CellTiter-Blue after 3 days (left) and cell proliferation with 10μM of compounds quantified by clonogenic assay after 7 days (right). […] (D) Cell viability quantified by clonogenic assay of PC9 cell line after 7-day treatment with 2 nM osimertinib (osi alone), osimertinib with 10 μM R12–8–44–3, or osimertinib with 10 μM R12-neg. […]"}, "MSI2 [3]": {"molecular_target": "MSI2 (Homo sapiens, UniProt Q96DH6)", "sequence (Q96DH6 whole entry)": "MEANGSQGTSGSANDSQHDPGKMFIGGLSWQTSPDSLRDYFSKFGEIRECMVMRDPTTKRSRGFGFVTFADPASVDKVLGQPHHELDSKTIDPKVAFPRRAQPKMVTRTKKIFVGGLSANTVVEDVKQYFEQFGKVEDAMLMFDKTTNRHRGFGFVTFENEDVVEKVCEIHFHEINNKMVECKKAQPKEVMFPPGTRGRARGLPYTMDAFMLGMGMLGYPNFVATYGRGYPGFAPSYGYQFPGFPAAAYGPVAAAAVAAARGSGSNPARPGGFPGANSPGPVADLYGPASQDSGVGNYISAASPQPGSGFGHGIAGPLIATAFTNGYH", "test": "mRNA immunoprecipitation (RIP) with anti-MSI2 in PC9 cells", "type": "cell-based", "design": "endogenous in cells; host or cells: PC9", "conditions": "PC9, 10 μM, 8 hours", "description": "Among previously described targets of MSI2 are PTP4A, SMAD3, EGFR, and MSI2 itself. To test for disruption of MSI2 with these cognate mRNAs upon treatment with R12–8–44–3, we used mRNA immunoprecipitation (RIP): we used an anti-MSI2 antibody to immunoprecipitate MSI2, then reverse transcribed and analyzed by qPCR to determine the amount of each specific mRNA that was bound to MSI2. As an important control to ensure that the resulting mRNA was indeed brought down by MSI2, we additionally verified that using a negative control antibody (instead of anti-MSI2) brought with it 100-fold less of each target mRNA (Figure S10). As a separate negative control, GAPDH mRNA was also quantified in the context of these studies (since GAPDH is not thought to be a target of MSI2).\nPC9 cells were then treated with 10 μM of each compound for 8 hours and then analyzed by RIP.\nFigure 7: Cellular characterization of MSI2 inhibition by R12–8–44–3. (A) Quantification of mRNA immunoprecipitation (RIP) results. […] After immunoprecipitation with anti-MSI2, mRNA targets were quantified. The amount of each target mRNA in the pulldown was calculated relative to the input, and results from all targets were normalized to PTP4A1. […] Cells were treated with indicated compounds at two concentrations (5 μM and 20 μM) for 48 hours, then protein levels of relevant MSI2 targets were determined (EGFR, SMAD3, and MSI2). […]"}}, "data": [{"smiles": "Cc1cc(C(=O)OCc2nc(N)c3c(C)c(C)sc3n2)c(N)cc1F", "note": "[R12–8–44–3]", "values": [{"measurement": "cell growth/survival", "setting": "K562 cells", "value": "results in alignment with our observations from PC9 cells"}, {"measurement": "cellular MSI2 protein levels", "setting": "MSI2 [1]", "value": "unchanged"}, {"measurement": "SMAD3 and EGFR protein levels", "setting": "[2]", "value": "phenocopied the effect of MSI2 depletion on these two targets"}, {"measurement": "amount of MSI2 protein", "setting": "[2]", "value": "without changing the amount of MSI2"}, {"measurement": "amount of target mRNA associated with MSI2 (PTP4A, SMAD3, EGFR, MSI2)", "setting": "MSI2 [3]", "value": "statistically significant reduction in the amount of mRNA associated with MSI2"}]}]}
